Common to all, as to format: cell-based
Test [1] relates to Bladder cancer cell line UM-UC-3. As to the kind of experiment: Inhibitory activity on cancer cells, CellTiter-Glo viability, UM-UC-3. Conditions: Homo sapiens, UMUC3, 72 hours treatment. The essentials: (§1)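 HUVEC seeded at 2000, UM-UC-3 and RM-1 at 3000, LNCaP at 5000 cells/well, each in its own medium, 24 h before dosing. Compounds: 8-point 2.5-fold dilutions from 100 μmol, 72 h at 37 °C, 5% CO2. CellTiter-Glo luminescence; IC50 from growth-inhibition curves.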
On the technique in general: In ATP-based viability assays light output follows the ATP content of the culture.

The nature of test [2]: MIC by micro broth dilution (CLSI), Klebsiella pneumoniae. Conditions: for MIC50 / MIC90: Standard strain. The text has this:
The test bacteria were one strain of clinically isolated carbapenem-resistant Escherichia coli, two strains of carbapenem-resistant Acinetobacter baumannii, two strains of methicillin-resistant Staphylococcus aureus, two strains of sensitive Staphylococcus aureus, and 7 strains of Klebsiella pneumoniae. Duplicate strains isolated from the same patient were eliminated. There were also […] quality control strains Escherichia coli ATCC25922, Acinetobacter baumannii ATCC19606, Staphylococcus aureus ATCC29213, Klebsiella pneumoniae ATCC BAA-1705, ATCC 43816, ATCC BAA-2472, ATCC-BAA-1898, ATCC-BAA-1899, NCTC 13440 and ATCC-BAA-2470. There were 24 strains in total.
According to the recommendations of relevant documents of the American Clinical and Laboratory Standards Institute (CLSI), the micro broth dilution method was used to determine the MIC of the compounds of the present invention against clinically isolated strains. • 3.1 Formulation of antibacterial drug: All the compounds of the present invention were dissolved in DMSO. The drug concentration range was 128 mg/L to 0.06 mg/L. • 3.2 Culture medium: The drug susceptibility test used cation adjusted Mueller-Hinton broth (CAMHB). • 3.3 Amount of inoculum: The test bacteria cultured overnight were adjusted to 0.5 McFarland turbidity by the direct colony suspension method, and diluted 100 folds, the final inoculum amount was 10^5 CFU/mL. • 3.4 Culture conditions: The test bacteria were cultured at 35±2° C. for 20 hours in air.
The drug susceptibility test results were interpretated by reference to CLSI 2019 M100 29th edition criteria.
The quality control strains of the drug susceptibility test were Escherichia coli ATCC 25922, Acinetobacter baumannii ATCC 19606, Staphylococcus aureus ATCC 29213, Klebsiella pneumoniae ATCC BAA-1705, ATCC 43816, ATCC BAA-2472, ATCC-BAA-1898, ATCC-BAA-1899, NCTC 13440 and ATCC-BAA-2470.
The results of drug susceptibility test were statistically analyzed by WHONET software (version 5.6).

Test [3] concerns Mouse prostate cancer cell line RM1. As to the kind of experiment: Inhibitory activity on cancer cells, CellTiter-Glo viability, RM1. As to conditions: 72 hours treatment. An outline of the steps:
as §1

For test [4], the system named is Acinetobacter baumannii (carbapenem-resistant clinical isolates; ATCC19606). As to the kind of experiment: MIC by micro broth dilution (CLSI), Acinetobacter baumannii. As to conditions: Acinetobacter baumannii; for MIC50 / MIC90: ATCC19606, Clinical strain; for MIC50: read-out: MIC50; for MIC90: read-out: MIC90; for MIC: Standard strain ATCC19606, read-out: MIC. An outline of the steps:
(§2)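 Compounds were dissolved in DMSO and tested at 128 to 0.06 mg/L in cation-adjusted Mueller-Hinton broth. Overnight cultures were set to 0.5 McFarland, diluted 100-fold to a final 10^5 CFU/mL, and incubated at 35±2° C for 20 hours in air. Results were interpreted by CLSI 2019 M100 criteria.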
(Dilution methods test growth across graded concentrations, often in twofold steps.)

The subject of test [5] is Staphylococcus aureus (methicillin-resistant and sensitive clinical isolates; ATCC29213). As to the kind of experiment: MIC by micro broth dilution (CLSI), Staphylococcus aureus. Conditions: for MIC50 / MIC90: Clinical strain; for MIC50: read-out: MIC50; for MIC90: read-out: MIC90; for MIC: Standard strain ATCC29213, read-out: MIC. An outline of the steps:
as §2

In test [6] the test system is Prostate cancer cell line LNcaP. As to the kind of experiment: Inhibitory activity on cancer cells, CellTiter-Glo viability, LNcaP. Conditions: Homo sapiens, 72 hours treatment. An outline of the steps: as §1
Test [7] deals with Escherichia coli (carbapenem-resistant clinical isolate; ATCC25922). As to the kind of experiment: MIC by micro broth dilution (CLSI), Escherichia coli. Conditions: Escherichia coli; for MIC50 / MIC90: ATCC25922, Clinical strain; for MIC50: read-out: MIC50; for MIC90: read-out: MIC90; for MIC: Standard strain ATCC25922, read-out: MIC. An outline of the steps: as §2
In test [8] the test system is Endothelial cell line HUVEC. As to the kind of experiment: Inhibitory activity on cells, CellTiter-Glo viability, HUVEC. Conditions: Homo sapiens, 72 hours treatment. An outline of the steps: as §1

Molecules are shown by their SMILES. Values after ≈ are worked out from the molar mass of the structure shown. Bounds are passed on as bounds.

One may read the IC50 as the midpoint of a concentration-inhibition curve. Higher therefore signals weaker potency in that assay. By MIC50 is commonly meant the lowest concentration that inhibits either 50% of growth or 50% of the strains tested, depending on the study. What is called MIC90 is an inhibitory concentration at the 90% level, which refers to growth in some studies and to a panel of isolates in others. Broadly, the MIC is the lowest concentration that inhibits growth of the organism. With `O=[N+]([O-])c1ccc2c(C3CC3)ccnc2c1O` [Example 11, 4-Cyclopropyl-7-nitroquinolin-8-ol], the 50% inhibitory concentration (IC50) was found to be 2.71 µM in test [1], 3.42 µM in test [3], 1.67 µM in test [6] and 2.97 µM in test [8]. Moreover, the MIC50 in test [2] amounted to 64 µg/mL (≈ 278 µM); in test [4], 16 µg/mL (≈ 69.5 µM); in test [5], 8 µg/mL (≈ 34.7 µM); in test [7], 8 µg/mL (≈ 34.7 µM). In addition, the MIC90 in test [2] worked out at 64 µg/mL (≈ 278 µM); in test [4], 128 µg/mL (≈ 556 µM); in test [5], 8 µg/mL (≈ 34.7 µM); in test [7], 128 µg/mL (≈ 556 µM). Besides, the MIC in test [4] was over 128 µg/mL; in test [5], 4 µg/mL (≈ 17.4 µM); in test [7] it was over 128 µg/mL.
On to `O=[N+]([O-])c1ccc(O)c2ncccc12` [Nitroxoline, nitroxoline, reference compound], for which the IC50 stood at 9.2 µM in test [1], 4.3 µM in test [3], 5.1 µM in test [6] and 4.5 µM in test [8]. For the same compound, the MIC50 was 8 µg/mL (≈ 42.1 µM) in test [2], 4 µg/mL (≈ 21 µM) in test [4], 4 µg/mL (≈ 21 µM) in test [5] and 8 µg/mL (≈ 42.1 µM) in test [7]. Besides, the MIC90 in test [2] came out at 16 µg/mL (≈ 84.1 µM); in test [4] it was 4 µg/mL (≈ 21 µM); in test [5], 4 µg/mL (≈ 21 µM); in test [7], 16 µg/mL (≈ 84.1 µM). In addition, the minimal inhibitory concentration (MIC) was determined as 4 µg/mL (≈ 21 µM) in test [2] (Standard strain ATCC43816), 2 µg/mL (≈ 10.5 µM) in test [4], 4 µg/mL (≈ 21 µM) in test [5] and 4 µg/mL (≈ 21 µM) in test [7].

Source of the values: patent US20240246916A1, “7-NITRO-8-HYDROXYQUINOLINE DERIVATIVES, PREPARATION METHOD THEREFORE AND MEDICAL USE THEREOF” (Jiangsu Yahong Meditech Co., Ltd., priority 2021, published 2024).
